Source: patent US20220372014A1, “NEUROPROTECTIVE COMPOUNDS AND METHODS OF USE THEREOF” (The Johns Hopkins University, priority 2019, published 2022)
Entries after “also recorded” stand apart in the source; their conditions may differ.

Tests used:
primary cortical neurons = assay: α-syn PFF-induced cell death in mouse primary cortical neurons (Hoechst and PI staining); format: cell-based; conditions: for α-syn PFF-induced cell death in mouse cortical neurons: pre-treated before α-syn PFF, Hoechst/PI; for toxicity when applied to primary cortical neurons: FIG. 12G
Description: Cell culture, transfection, primary neuronal culture and treatment. SH-SY5Y cells (ATCC) were cultured in DMEM containing 10% fetal bovine serum and penicillin/streptomycin at 37° C. under 5% C02. The cells were transfected using PolyFect reagent (Qiagen). Parthanatos was induced by the treatment of 50 μM MNNG for 15 min in SH-SY5Y cells. ABT-888 or PAAN/MIF inhibitors were pretreated with indicated concentration 1 h before MNNG treatment and cell death were assessed after 24 h. Primary cortical neurons from WT, PAAN/MIF KO, E22Q KI or P1G KI embryos were prepared as previously described See Kam et al. (2018) Science 362:eaat8407. Briefly, the cortex was dissected and cultured at embryonic day 16 in neurobasal media supplemented with B-27, 0.5 mM L-glutamine, penicillin and streptomycin (Invitrogen). Primary neurons were infected with AAV2-control, AAV2-PAAN/MIF WT, AAV2-PAAN/MIF E22Q, AAV2-PAAN/MIF E22A or AAV2-MIF P1G (ViGene Biosciences) at days in vitro (DIV) 4-5. ABT-888 or PAAN/MIF inhibitors were applied to neurons 1 h before α-syn PFF treatment. The neuron growth medium was replaced with fresh medium alone or including inhibitors every 3-4 days. α-syn PFF was added at DIV 7 and further incubated for indicated times followed by the cell death assay or biochemical experiments.
Cell death and viability assessment. Primary cultured cortical neurons were treated with 5 μg/ml of α-syn PFF for 14 days and cell death was determined by staining of all nuclei with 7 μM Hoechst 33342 and dead cell nuclei with 2 μM propidium iodide (PI) (Invitrogen). The numbers of total and dead cells were counted with the Axiovision 4.6 software (Carl Zeiss). Cell viability was determined by fluorescence at an excitation wavelength 570 nm and an emission wavelength 585 nm using Alamar Blue (Invitrogen).

PARP-1 = biological target: T1, PARP-1 (Homo sapiens, UniProt P09874); assay: In vitro ribosylation assay (IVRA) of PARP-1; format: biochemical; conditions: 1 μM
T1 construct: purchased Trevigen
Description: In vitro ribosylation assay of PARP-1. […] of recombinant PARP-1, activated DNA and NAD+(Trevigen) in the presence or absence of 1 μM of PARP-1 inhibitor, ABT-888 or PAAN/MIF inhibitors (compound 56 or 121) were incubated in the PARP assay buffer (Trevigen) for 30 m at room temperature and analyzed by immunoblot analysis using PAR antibody.

[1] = Measurement of compounds in brain after oral gavage (HPLC-MS); format: in vivo, C57BL/6 mice; conditions: oral gavage 10 mg/kg
Description: The concentrations of compounds in brain tissue were measured by LC/MS. […] Bars represent means±s.e.m. ***P<0.0005, two-way ANOVA followed by Tukey's post hoc test (n=3). […] Quantification of noncleaved substrate. Bars represent mean±s.e.m. ***P<0.0005, two-way ANOVA followed by Tukey's post hoc test (n=4). […] Intensity of noncleaved genomic DNA is shown in the graph. Bars represent mean±s.e.m. ***P<0.0005, two-way ANOVA followed by Tukey's post hoc test (n=4).
Measurement of compound 121 in brain. Compound 56, compound 77, and compound 121 were resuspended in a vehicle solution and were administered at 10 mg/kg by oral gavage. After 2 h, mice were perfused with PBS and whole brain was isolated, weighed and grounded with a pestle to a very fine powder with liquid nitrogen. Then, 2-folds of acetonitrile were added to brain tissue sample and the mixture was centrifuged at 14,000 rpm, 4° C. for 10 m. The supernatant was used for analysis. The concentration of compounds in brain tissue were measured using HPLC-MS on a C-18 reverse phase HPLC column. Separations were achieved using a linear gradient of buffer B from 40% to 95% in A (A=0.1% formic acid in H20; B=0.1% formic acid in CH3CN) at a flow rate of 1 ml/min. Intracerebroventricular (ICV) injected brain samples at 0.5, 1, 2, 4 or 8 μM concentration were used for the standard curve.

mouse cortical neurons = assay: Pulsed-field gel electrophoresis of α-syn PFF-induced DNA damage in mouse cortical neurons; format: cell-based
Description: Preparation and quantification of genomic DNA. The striatum was rapidly removed from the brain and lysed by repetitive pipetting with a micropipette in lysis buffer [100 mM NaCl, 10 mM Tris-HCl (pH 8.0), 25 mM EDTA (pH 8.0), 0.5% SDS] with 0.2 mg/ml proteinase K (Roche Diagnotics). Samples were incubated 55° C. for overnight and further incubated 85° C. for 45 m to inactivate proteinase K. The genomic DNA were immediately separated on a 1.2% pulse field certified agarose in 0.5×TBE buffer with initial switch time of 1.5 s and a final switch time of 3.5 s for 12 h at 6 V/cm. The gel was then stained with […] Ethidium Bromide (EtBr) and visualized on UV light. Noncleaved genomic DNA was quantified as percentage (%) of the total genomic DNA that included both noncleaved genomic DNA and cleaved genomic DNA in each individual group.
Cell culture, transfection, primary neuronal culture and treatment. SH-SY5Y cells (ATCC) were cultured in DMEM containing 10% fetal bovine serum and penicillin/streptomycin at 37° C. under 5% C02. The cells were transfected using PolyFect reagent (Qiagen). Parthanatos was induced by the treatment of 50 μM MNNG for 15 min in SH-SY5Y cells. ABT-888 or PAAN/MIF inhibitors were pretreated with indicated concentration 1 h before MNNG treatment and cell death were assessed after 24 h. […]

EcoRV = EcoRV (Escherichia coli, UniProt P04390); assay: In vitro nuclease assay of EcoRV (pcDNA3 substrate); format: biochemical
Description: (§1) Nuclease assay. Purified PAAN/MIF protein (4 μM) was incubated with compounds (10 μM) in the nuclease buffer [10 mM Tris-C1 (pH 7.0) and 10 mM MgCl2] for 20 m on ice. Then samples were added with 1 μM of PAAN/MIF substrate (PS30 or RF) and incubated for 1 h at 37° C. The reaction was terminated with loading buffer containing 10 mM EDTA and separated on 15% TBE-urea polyacrylamide (PAGE) gel or 20% TBE PAGE gel. For other nucleases (EcoRI and EcoRV) assays, pcDNA3 (500 ng/reaction) was used as a substrate and 0.01 unit of Exonulcase III were incubated with small dsDNA (Sequence ID NO 4:5′-[…]-3′ and Sequence ID NO 5:5′-[…]-3′).

ExoIII = ExoIII (Escherichia coli, UniProt P09030); assay: In vitro nuclease assay of ExoIII (18 bp double-strand DNA substrate); format: biochemical
Description: as §1

Chain of ExoIII (P09030 whole entry): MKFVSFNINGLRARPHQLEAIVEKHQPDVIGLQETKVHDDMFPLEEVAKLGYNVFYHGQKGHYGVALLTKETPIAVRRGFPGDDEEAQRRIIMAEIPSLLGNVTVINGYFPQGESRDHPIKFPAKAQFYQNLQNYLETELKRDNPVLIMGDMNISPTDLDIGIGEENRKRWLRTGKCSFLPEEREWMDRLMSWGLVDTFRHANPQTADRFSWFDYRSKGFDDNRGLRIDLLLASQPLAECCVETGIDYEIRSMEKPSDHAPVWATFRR
Chain of EcoRV (P04390 whole entry): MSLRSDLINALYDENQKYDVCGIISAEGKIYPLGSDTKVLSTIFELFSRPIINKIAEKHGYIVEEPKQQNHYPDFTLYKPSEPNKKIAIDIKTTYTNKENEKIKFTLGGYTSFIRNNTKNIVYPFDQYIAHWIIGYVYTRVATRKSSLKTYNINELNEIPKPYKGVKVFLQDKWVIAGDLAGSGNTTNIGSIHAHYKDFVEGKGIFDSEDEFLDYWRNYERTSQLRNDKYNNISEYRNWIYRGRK
T1 sequence (P09874 whole entry): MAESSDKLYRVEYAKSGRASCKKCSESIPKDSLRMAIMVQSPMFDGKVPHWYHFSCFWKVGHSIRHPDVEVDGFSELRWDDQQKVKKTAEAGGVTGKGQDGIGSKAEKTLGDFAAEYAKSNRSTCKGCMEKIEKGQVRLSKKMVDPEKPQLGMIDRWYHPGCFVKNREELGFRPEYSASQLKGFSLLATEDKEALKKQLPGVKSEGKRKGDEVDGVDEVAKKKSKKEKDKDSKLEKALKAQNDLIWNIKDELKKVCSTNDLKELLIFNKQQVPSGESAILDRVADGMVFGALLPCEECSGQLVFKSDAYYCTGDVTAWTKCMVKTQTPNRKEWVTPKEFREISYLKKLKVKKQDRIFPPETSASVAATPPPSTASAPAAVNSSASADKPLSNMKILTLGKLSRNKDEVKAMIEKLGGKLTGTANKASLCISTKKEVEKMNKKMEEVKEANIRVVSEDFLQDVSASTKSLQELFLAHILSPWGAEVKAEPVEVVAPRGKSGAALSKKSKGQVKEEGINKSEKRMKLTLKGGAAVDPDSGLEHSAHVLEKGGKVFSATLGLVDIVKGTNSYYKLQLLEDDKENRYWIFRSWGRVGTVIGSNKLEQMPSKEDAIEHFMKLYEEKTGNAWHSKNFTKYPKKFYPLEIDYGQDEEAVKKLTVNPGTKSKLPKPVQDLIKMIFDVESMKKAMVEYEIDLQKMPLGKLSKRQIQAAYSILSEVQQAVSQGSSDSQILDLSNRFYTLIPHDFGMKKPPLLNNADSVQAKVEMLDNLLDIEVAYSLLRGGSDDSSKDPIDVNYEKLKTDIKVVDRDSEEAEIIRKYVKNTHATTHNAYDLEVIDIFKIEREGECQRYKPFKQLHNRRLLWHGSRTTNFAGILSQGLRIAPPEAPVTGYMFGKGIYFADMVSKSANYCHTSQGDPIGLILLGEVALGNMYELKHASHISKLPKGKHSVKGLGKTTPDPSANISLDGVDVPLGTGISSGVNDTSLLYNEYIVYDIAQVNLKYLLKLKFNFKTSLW

SMILES: COc1ccc(CC[C@H]2OC(=O)[C@@H]3CCCCN3C(=O)C(=O)C(C)(C)COC(=O)C=CCCN(C)C(=O)[C@@H]3CCCN3C(=O)[C@H](COC(C)(C)C)N(C)C(=O)C(c3ccccc3)NC(=O)[C@H](C)N(C)C(=O)COc3cc(F)cc2c3)cc1OC (mixture of isomers) [compound 121]
- α-syn PFF-induced cell death in mouse cortical neurons (primary cortical neurons): protected
- ABT-888 sensitive PARP activity (PARP-1): failed to inhibit
- levels detected in the brain relative to compound 56 ([1]; 2 h): ~3 fold
- genomic DNA cleavage in mouse cortical neurons treated with α-syn PFF (mouse cortical neurons): protected against genomic DNA cleavage

SMILES: COc1ccc(CC[C@H]2OC(=O)[C@@H]3CCCCN3C(=O)C(=O)C(C)(C)COC(=O)C=CCCN(C)C(=O)[C@@H]3CCCN3C(=O)[C@H](COC(C)(C)C)N(C)C(=O)C(c3ccccc3)NC(=O)CN(C)C(=O)COc3cccc2c3)cc1OC (stereo partly shown) [compound 41]
- toxicity when applied to primary cortical neurons (primary cortical neurons): some toxicity
- α-syn PFF-induced cell death in mouse cortical neurons (primary cortical neurons): attenuated
- nuclease activity of EcoRV (EcoRV): do not inhibit
- nuclease activity of ExoIII (ExoIII): do not inhibit

SMILES: COc1ccc(CC[C@H]2OC(=O)[C@@H]3CCCCN3C(=O)C(=O)C(C)(C)COC(=O)C=CCCN(C)C(=O)[C@@H]3CCCN3C(=O)[C@H](COC(C)(C)C)N(C)C(=O)C(c3ccccc3)NC(=O)[C@H](C)N(C)C(=O)COc3cccc2c3)cc1OC (stereo partly shown) [compound 56]
- α-syn PFF-induced cell death in mouse cortical neurons (primary cortical neurons): attenuated; also recorded: protected
- ABT-888 sensitive PARP activity (PARP-1): failed to inhibit
- concentration at 2 h ([1]; C57BL/6, mouse, brain, read-out: achievable concentration in brain): < 500 nM
- ability to cross the blood brain barrier (BBB) ([1]; 2 h): crossed the BBB
- nuclease activity of EcoRV (EcoRV): do not inhibit
- nuclease activity of ExoIII (ExoIII): do not inhibit
- genomic DNA cleavage in mouse cortical neurons treated with α-syn PFF (mouse cortical neurons): protected against genomic DNA cleavage

SMILES: COc1ccc(CC[C@H]2OC(=O)[C@@H]3CCCCN3C(=O)C(=O)C(C)(C)COC(=O)C=CCCN(C)C(=O)CNC(=O)[C@H](C(C)C)N(C)C(=O)[C@@H](Cc3ccccc3)NC(=O)[C@H](CC(C)C)N(C)C(=O)CCC(=O)Nc3cccc2c3)cc1OC [compound 76]
- toxicity when applied to primary cortical neurons (primary cortical neurons): some toxicity
- nuclease activity of EcoRV (EcoRV): do not inhibit
- nuclease activity of ExoIII (ExoIII): do not inhibit

SMILES: COc1ccc(CC[C@H]2OC(=O)[C@@H]3CCCCN3C(=O)C(=O)C(C)(C)COC(=O)C=CCCN(C)C(=O)[C@H](C)NC(=O)[C@H](C(C)C)N(C)C(=O)[C@@H](Cc3ccccc3)NC(=O)[C@H](CC(C)C)N(C)C(=O)CCC(=O)Nc3cccc2c3)cc1OC [compound 77]
- α-syn PFF-induced cell death in mouse cortical neurons (primary cortical neurons): attenuated
- ability to cross the blood brain barrier (BBB) ([1]; 2 h): only compound 56 crossed the BBB
- nuclease activity of EcoRV (EcoRV): do not inhibit
- nuclease activity of ExoIII (ExoIII): do not inhibit
